According to article PMC6270420, “Antibacterial Activity of Salicylanilide 4-(Trifluoromethyl)benzoates” (Molecules, 2013):
≈ marks a conversion by molar mass, not a printed value. Like-named read-outs stand apart in the source and are kept apart here.

What was measured:
[1] = system: Gram-positive cocci including MRSA; assay: Antibacterial microdilution, summary for Gram-positive cocci; format: cell-based; conditions: Staphylococcus aureus, read-out: MICs against Gram-positive cocci
Method: (§1) The in vitro antibacterial activity was assayed against eight Gram-positive and Gram-negative strains: Staphylococcus aureus CCM 4516/08, methicillin-resistant Staphylococcus aureus H 5996/08 (MRSA), Staphylococcus epidermidis H 6966/08, Enterococcus sp. J 14365/08; Escherichia coli CCM 4517, Klebsiella pneumoniae D 11750/08, ESBL-positive Klebsiella pneumoniae J 14368/08, and Pseudomonas aeruginosa CCM 1961.
(§2) The microdilution broth method modified according to standard M07-A07 in Mueller-Hinton broth (HiMedia Laboratories, Mumbai, India) adjusted to pH 7.4 (±0.2) was used. The tested compounds were dissolved in DMSO to the final concentrations ranging from […]. Benzylpenicillin (penicillin G) was used as a comparative drug. Bacterial inoculum in sterile water was prepared to match 0.5 McFarland scale ([…]). The minimum inhibitory concentrations were assayed as 90% (IC90) or higher reduction of growth when compared to the control. The determination of results was performed visually and spectrophotometrically (at 540 nm). The values of MICs were determined after 24 and 48 h of incubation in the darkness at 35 °C (±0.1) in a humid atmosphere.

[2] = target: T1, mycobacterial isocitrate lyase (ICL1, Rv0467) (Mycobacterium tuberculosis, UniProt P9WKK7); assay: Isocitrate lyase inhibition assay (ICL1); format: biochemical, Mycobacterium tuberculosis H37Rv; conditions: 10 μmol/L; read-out: % ICL inhibition at 10 μmol/L (± standard deviation)
T1 construct: His tag (from pET-28b(+)); made in house; host or cells: E. coli BL21(DE3), pET-28b(+) plasmid
T1 sequence (P9WKK7 1-428): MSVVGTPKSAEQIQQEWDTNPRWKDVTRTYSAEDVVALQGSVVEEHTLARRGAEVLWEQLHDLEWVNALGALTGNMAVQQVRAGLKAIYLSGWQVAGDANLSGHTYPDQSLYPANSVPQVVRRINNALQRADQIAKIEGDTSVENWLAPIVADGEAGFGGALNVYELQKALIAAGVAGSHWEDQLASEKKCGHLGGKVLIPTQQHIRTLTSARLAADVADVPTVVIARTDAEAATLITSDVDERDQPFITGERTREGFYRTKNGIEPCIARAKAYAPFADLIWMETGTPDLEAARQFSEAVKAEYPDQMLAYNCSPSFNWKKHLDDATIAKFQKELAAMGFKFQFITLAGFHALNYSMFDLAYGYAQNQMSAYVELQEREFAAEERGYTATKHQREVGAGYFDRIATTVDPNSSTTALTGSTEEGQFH

[3] = system: Mycobacterium kansasii 235/80; assay: Antimycobacterial MIC micromethod; format: cell-based; conditions: read-out: MIC M. kansasii 235/80
[4] = system: Mycobacterium tuberculosis 331/88 (H37Rv); assay: Antimycobacterial MIC micromethod, Šula's medium; format: cell-based; conditions: read-out: MIC Mtb. 331/88
[5] = system: Mycobacterium avium 330/88; assay: Antimycobacterial MIC micromethod; format: cell-based
[6] = system: M. kansasii 6509/96 (clinically isolated strain); assay: Antimycobacterial MIC micromethod; format: cell-based; conditions: Mycobacterium kansasii, read-out: MIC M. kansasii 6509/96
[7] = system: Staphylococcus epidermidis H 6966/08; assay: Antibacterial microdilution broth method; format: cell-based; conditions: read-out: MIC/IC90 S. epidermidis H 6966/08
Method: as §1, §2

[8] = system: methicillin-resistant Staphylococcus aureus H 5996/08 (MRSA); assay: Antibacterial microdilution broth method; format: cell-based; conditions: read-out: MIC/IC90 MRSA H 5996/08
Method: as §1, §2

[9] = system: Enterococcus sp. J 14365/08; assay: Antibacterial microdilution broth method; format: cell-based; conditions: read-out: MIC/IC90 Enterococcus sp. J 14365/08
Method: as §1, §2

[10] = system: Staphylococcus aureus CCM 4516/08; assay: Antibacterial microdilution broth method; format: cell-based; conditions: read-out: MIC/IC90 S. aureus CCM 4516/08
Method: as §1, §2

[11] = system: Escherichia coli CCM 4517; assay: Antibacterial microdilution broth method; format: cell-based; conditions: read-out: MIC/IC90 E. coli CCM 4517
Method: as §1, §2

[12] = system: Mtb. 234/2005; assay: microbe, parasite or virus in culture; format: cell-based; conditions: Mycobacterium tuberculosis, read-out: MIC Mtb. 234/2005
[13] = system: Mtb. 7357/1988; assay: microbe, parasite or virus in culture; format: cell-based; conditions: Mycobacterium tuberculosis, read-out: MIC Mtb. 7357/1988
[14] = system: Mtb. Praha 1; assay: microbe, parasite or virus in culture; format: cell-based; conditions: Mycobacterium tuberculosis, read-out: MIC Mtb. Praha 1
[15] = system: Mtb. Praha 131 (XDR-TB); assay: microbe, parasite or virus in culture; format: cell-based; conditions: Mycobacterium tuberculosis, read-out: MIC Mtb. Praha 131 (XDR-TB)
[16] = system: Mtb. 9449/2006; assay: microbe, parasite or virus in culture; format: cell-based; conditions: Mycobacterium tuberculosis, read-out: MIC Mtb. 9449/2006
[17] = system: HepG2 cells; assay: Cytotoxicity evaluation (CellTiter 96 MTS); format: cell-based, human; conditions: Homo sapiens, HepG2, 24 h, read-out: IC50 HepG2
Method: Seven esters and their parent salicylanilides with the most robust antimicrobial activity were tested for cytotoxicity in the human hepatocellular liver carcinoma cell line HepG2 (passages 21–24; ECACC, Salisbury, UK) using a standard colorimetric method measuring a tetrazolium salt reduction (CellTiter(R) 96 AQueous One Solution Assay, Promega G3580, Madison, WI, USA).
The cells were routinely cultured in Minimum Essentials Eagle Medium (Sigma-Aldrich, Darmstadt, Germany) supplemented with 10% foetal bovine serum (PAA; Biotech, Prague, Czech Republic), 1% of L-glutamine solution (Sigma-Aldrich), and non-essential amino acids solution (Sigma-Aldrich) in a humidified atmosphere containing 5% CO2 at 37 °C. For subculturing, the cells were harvested after trypsin/EDTA (Sigma-Aldrich) treatment at 37 °C. The cells treated with the tested substances were used as experimental groups. Untreated HepG2 cells were used as control groups.
The cells were seeded in density 1 × 10^4 cells per well in a 96-well plate with microscopic control. Next day, the cells were treated with each of the tested substances. […] The most of the tested compounds were prepared in incubation concentrations of 0.01–20 µM in triplicates. 4-(Trifluoromethyl)benzoic acid was applied in the concentrations of 10–4,000 µM in triplicates. The following types of controls were included: determination of 100% viability and 0% viability (the cells treated by 10% DMSO), no cell control and vehiculum controls. These checking samples were prepared in triplicates.
The treated cells were incubated together with controls at 37 °C for 24 h in 5% CO2 atmosphere. After this time reagent from the kit CellTiter 96 AQueous One Solution Cell Proliferation Assay was added. The CellTiter 96 assay is based on the reduction of tetrazolium salt MTS [3-(4,5-dimethylthiazol-2-yl)-5-(3-carboxymethoxyphenyl)-2-(4-sulfophenyl)-2H-tetrazolium] to water-soluble formazan dye by metabolically active cells. The reduction of the reagent is attributed to availability of NADH or NADPH. The decline in levels of these metabolically important compounds in the cell causes that the production of formazan is reduced. The tested plate was incubated for 2 h at 37 °C and 5% CO2 and after this time, the absorbance was recorded at 490 nm using a 96-well plate reader (TECAN, Infinite M200, Grödig, Austria).
The results were expressed as inhibitory concentration which is necessary to inhibit cell viability to 50% from the maximal (control) viability (IC50). A standard toxicological parameter IC50 was calculated in each of the tested substances using GraphPad Prism software (version 5.02; GraphPad Software Inc., San Diego, CA, USA).

[18] = system: Mtb. 53/2009; assay: microbe, parasite or virus in culture; format: cell-based; conditions: Mycobacterium tuberculosis, read-out: MIC Mtb. 53/2009

## O=C(Oc1ccc(Cl)cc1C(=O)Nc1cccc(F)c1)c1ccc(C(F)(F)F)cc1 [1k]
[1]
  MIC: < 1 µM
[2]
  inhibition at 10 µM: ≥ 20%
[3]; 235/80, 168 h, 7 d
  MIC: 8 µM (≈ 3.5 µg/mL)
[3]; 235/80, 336 h, 14 d
  MIC: 16 µM (≈ 7 µg/mL)
[3]; 235/80, 504 h, 21 d
  MIC: 16 µM (≈ 7 µg/mL)
[4]; 336 h, 14 d
  MIC: 8 µM (≈ 3.5 µg/mL)
[4]; 504 h, 21 d
  MIC: 8 µM (≈ 3.5 µg/mL)
[5]; 330/88, 336 h, 14 d
  MIC: 16 µM (≈ 7 µg/mL)
[5]; 330/88, 504 h, 21 d
  MIC: 32 µM (≈ 14 µg/mL)
[6]; 168 h, 7 d
  MIC: 8 µM (≈ 3.5 µg/mL)
[6]; 336 h, 14 d
  MIC: 16 µM (≈ 7 µg/mL)
[6]; 504 h, 21 d
  MIC: 16 µM (≈ 7 µg/mL)
[7]; H6966/08, 24 h
  MIC: 3.9 µM (≈ 1.71 µg/mL)
[7]; H6966/08, 48 h
  MIC: 3.9 µM (≈ 1.71 µg/mL)
[8]; 24 h
  MIC: 0.98 µM (≈ 0.429 µg/mL)
[8]; 48 h
  MIC: 1.95 µM (≈ 0.854 µg/mL)
[9]; SP.J14365/08, 24 h
  MIC: 31.2 µM (≈ 13.7 µg/mL)
[9]; SP.J14365/08, 48 h
  MIC: > 250 µM
[10]; CCM4516, 24 h
  MIC: 3.9 µM (≈ 1.71 µg/mL)
[10]; CCM4516, 48 h
  MIC: 3.9 µM (≈ 1.71 µg/mL)
[11]; CCM4517, 24 h
  MIC: > 250 µM
[11]; CCM4517, 48 h
  MIC: > 250 µM

## O=C(Oc1cc(Cl)ccc1C(=O)Nc1ccc(Cl)c(Cl)c1)c1ccc(C(F)(F)F)cc1 [1f]
[12]; 336 h
  MIC: 1 µM (≈ 0.489 µg/mL)
[12]; 504 h
  MIC: 2 µM (≈ 0.977 µg/mL)
[2]
  inhibition at 10 µM: 17 ± 1.6%
[3]; 235/80, 168 h, 7 d
  MIC: 1 µM (≈ 0.489 µg/mL)
[3]; 235/80, 336 h, 14 d
  MIC: 2 µM (≈ 0.977 µg/mL)
[3]; 235/80, 504 h, 21 d
  MIC: 4 µM (≈ 1.95 µg/mL)
[13]; 336 h
  MIC: 2 µM (≈ 0.977 µg/mL)
[13]; 504 h
  MIC: 2 µM (≈ 0.977 µg/mL)
[14]; 336 h
  MIC: 1 µM (≈ 0.489 µg/mL)
[14]; 504 h
  MIC: 2 µM (≈ 0.977 µg/mL)
[15]; 336 h
  MIC: 1 µM (≈ 0.489 µg/mL)
[15]; 504 h
  MIC: 2 µM (≈ 0.977 µg/mL)
[4]; 336 h, 14 d
  MIC: 1 µM (≈ 0.489 µg/mL)
[4]; 504 h, 21 d
  MIC: 2 µM (≈ 0.977 µg/mL)
[5]; 330/88, 336 h, 14 d
  MIC: 2 µM (≈ 0.977 µg/mL)
[5]; 330/88, 504 h, 21 d
  MIC: 8 µM (≈ 3.91 µg/mL)
[16]; 336 h
  MIC: 2 µM (≈ 0.977 µg/mL)
[16]; 504 h
  MIC: 2 µM (≈ 0.977 µg/mL)
[17]
  IC50: 4.46 µM
[18]; 336 h
  MIC: 2 µM (≈ 0.977 µg/mL)
[18]; 504 h
  MIC: 2 µM (≈ 0.977 µg/mL)
[6]; 168 h, 7 d
  MIC: 1 µM (≈ 0.489 µg/mL)
[6]; 336 h, 14 d
  MIC: 2 µM (≈ 0.977 µg/mL)
[6]; 504 h, 21 d
  MIC: 4 µM (≈ 1.95 µg/mL)

## O=C(Oc1ccc(Cl)cc1C(=O)Nc1cccc(Br)c1)c1ccc(C(F)(F)F)cc1 [1g]
[12]; 336 h
  MIC: 1 µM (≈ 0.499 µg/mL)
[12]; 504 h
  MIC: 2 µM (≈ 0.997 µg/mL)
[2]
  inhibition at 10 µM: ≥ 20%
[3]; 235/80, 168 h, 7 d
  MIC: 2 µM (≈ 0.997 µg/mL)
[3]; 235/80, 336 h, 14 d
  MIC: 4 µM (≈ 1.99 µg/mL)
[3]; 235/80, 504 h, 21 d
  MIC: 4 µM (≈ 1.99 µg/mL)
[13]; 336 h
  MIC: 2 µM (≈ 0.997 µg/mL)
[13]; 504 h
  MIC: 2 µM (≈ 0.997 µg/mL)
[14]; 336 h
  MIC: 1 µM (≈ 0.499 µg/mL)
[14]; 504 h
  MIC: 2 µM (≈ 0.997 µg/mL)
[15]; 336 h
  MIC: 1 µM (≈ 0.499 µg/mL)
[15]; 504 h
  MIC: 2 µM (≈ 0.997 µg/mL)
[4]; 336 h, 14 d
  MIC: 1 µM (≈ 0.499 µg/mL)
[4]; 504 h, 21 d
  MIC: 2 µM (≈ 0.997 µg/mL)
[5]; 330/88, 336 h, 14 d
  MIC: 2 µM (≈ 0.997 µg/mL)
[5]; 330/88, 504 h, 21 d
  MIC: 8 µM (≈ 3.99 µg/mL)
[16]; 336 h
  MIC: 1 µM (≈ 0.499 µg/mL)
[16]; 504 h
  MIC: 2 µM (≈ 0.997 µg/mL)
[17]
  IC50: 2.63 µM
[18]; 336 h
  MIC: 2 µM (≈ 0.997 µg/mL)
[18]; 504 h
  MIC: 2 µM (≈ 0.997 µg/mL)
[6]; 168 h, 7 d
  MIC: 1 µM (≈ 0.499 µg/mL)
[6]; 336 h, 14 d
  MIC: 4 µM (≈ 1.99 µg/mL)
[6]; 504 h, 21 d
  MIC: 4 µM (≈ 1.99 µg/mL)
